US20260091050A1, “ADVANTAGEOUS ANTI-HCV COMBINATION THERAPY” (Atea Pharmaceuticals, Inc., priority 2021, published 2026)

How the values were obtained:
[1] = system: replicons containing the NS5B sequences from HCV patient plasma samples (GT1a, 1b, 2a, 2b, 3a-1, 3a-2, 4a and 4d); test: Replicons containing NS5B sequences from HCV patient plasma samples (clinical isolates); assay type: cell-based
[2] = Solubility in biorelevant test medias (water, SGF, FaSSIF, FeSSIF); conditions: for Appearance: solubility test; for Descriptive term: solubility
[3] = Three-part study (Parts C, D, E) of Compound 1-A: overall safety/tolerability and pharmacokinetics; assay type: in vivo, human; conditions: for AUC(0-inf): human, in vivo
Method: (§1) Part C was a randomized, double-blind, placebo-controlled MAD study divided into three cohorts. […] The dose escalation only proceeded following satisfactory review of the data.
HCV-infected patients were treatment-naïve with HCV RNA ≥5 log 10 IU/mL. […] Plasma drug levels were measured using LC-MS/MS.

[4] = Plasma profiles of Compound 1 and metabolite 1-7 after single oral doses of Compound 1-A, cynomolgus monkeys; assay type: in vivo; conditions: monkey
GT1 HCV [5] = test: Multiple dose study, 7 days QD, non-cirrhotic GT1 HCV-infected patients (Part C); assay type: in vivo, human; conditions: Part C; for Mean ± SD HCV RNA change from baseline to 24 h / Mean ± SD HCV RNA maximum change from baseline: N = 6
Method: (§2) Doses were administered as the Compound 1-A salt base. The free base Compound 1 equivalent is often given in parenthesis.
as §1
(§3) HCV-infected patients were treatment-naïve with HCV RNA ≥5 log 10 IU/mL. HCV RNA was quantified using COBAS® AmpliPrep TaqMAN® v2.0 with LLQ of 15 IU/mL. Plasma drug levels were measured using LC-MS/MS. […] Mean ages of enrolled subjects were 44, 39, and 56 years in the non-cirrhotic GT1b 600 mg dose cohort, non-cirrhotic GT3 cohort, and the cirrhotic cohort, respectively.

[6] = system: replicons containing the NS5B sequences from HCV laboratory reference strains (GT1a, 1b, 2a, 3a, 4a and 5a); test: Replicons containing NS5B sequences from laboratory reference strains; assay type: cell-based; conditions: laboratory strains of HCV Genotypes 1-5
[7] = Head-to-head comparison of Compound 1 and Compound 1-A in dogs: plasma levels; assay type: in vivo; conditions: dog plasma, normalized to a dose of 25 mg/kg; 25 mg/kg
Method: A head-to-head comparison of dogs dosed with Compound 1 and Compound 1-A was conducted.

GT1 HCV [8] = test: Single ascending dose study of Compound 1-A in GT1-HCV infected patients (Part B); assay type: in vivo, human; conditions: single oral dose of Compound 1-A, plasma
Method: Subjects in Part B received a single dose of Compound 1-A in the fasting state. Patients were confined to the clinic from Day −1 to Day 6.
Part B was initiated after the safety (through Day 5) and plasma pharmacokinetic (through 24 h) data review from Cohort 3a in Part A. Available safety data (through Day 5) and pharmacokinetic data (through 24 h) was reviewed for the first cohort in Part B (Cohort 1b) before enrolling subsequent Part B cohorts. Subsequent Part B cohorts were only dosed following review of available safety and pharmacokinetic data from the respective doses in Part A as well as available safety (through Day 5) from the prior Part B cohorts.
Patients infected with HCV were treatment-naïve, non-cirrhotic GT1-infected subjects with a viral load of ≥5 log10 IU/mL.
Baseline was defined as the mean of Day −1 and Day 1 (pre-dose). […] The mean maximum HCV RNA reduction 24 hours post-dose following a single 300 mg dose was 1.7 log10 IU/mL and this compares to a −2 log 10 IU/mL reduction after 1 day of 400 mg of sofosbuvir monotherapy in GT1a HCV-infected subjects. The mean maximum HCV RNA reduction 24 hours post-dose following a single 100 mg dose was 0.8 log10 IU/mL. The mean 10 maximum HCV RNA reduction was 2.2 log10 IU/mL following a single 400 mg dose.

[9] = Plasma profiles of Compound 1 and metabolite 1-7 after single oral dose of Compound 1-A, Sprague-Dawley rats; assay type: in vivo; conditions: rat, single oral dose of Compound 1-A 500 mg/kg (0.5% CMC, 0.5% Tween 80 in water)
GT1, GT2, or GT3 HCV = test: 600 mg QD for 7 days in Child-Pugh A cirrhotic patients with GT1, GT2 or GT3 HCV (Part E); assay type: in vivo, human; conditions: Part E, 600 mg/day
Method: Doses were administered as the Compound 1-A salt base. The free base Compound 1 equivalent is often given in parenthesis. […]
as §3

GT3 HCV = test: 600 mg QD for 7 days in non-cirrhotic GT3 HCV-infected patients (Part D); assay type: in vivo, human; conditions: Part D, 600 mg/day, N = 6
Method: as §2, §1, §3

HCV NS5A = conditions: wide range of HCV genotypes and common clinical mutants; cited from earlier work
[10] = single oral dose of Compound 1-A 30 mg/kg (powder in capsules)
[11] = single oral dose of Compound 1-A 100 mg/kg (powder in capsules)
[12] = single oral dose of Compound 1-A 300 mg/kg (powder in capsules)

**Q.** For CNc1nc(N)nc2c1ncn2[C@@H]1O[C@H](CO[P@@](=O)(N[C@@H](C)C(=O)OC(C)C)Oc2ccccc2)[C@@H](O)[C@@]1(C)F [Compound 1, isopropyl((S)-(((2R,3R,4R,5R)-5-(2-amino-6-(methylamino)-9H-purin-9-yl)-4-fluoro-3-hydroxy-4-methyltetrahydrofuran-2-yl)methoxy)(phenoxy)phosphoryl)-L-alaninate], which EC95 ([1]; HCV GT1) is on record?
**A.** approximately 21.7 ng/mL equivalents of metabolite 1-7

**Q.** What about the EC95 ([1]; HCV GT2) of the same molecule?
**A.** ~11.6 ng/mL equivalents of metabolite 1-7

**Q.** And the EC95 ([1]; HCV GT3)?
**A.** ~17.5 ng/mL equivalents of metabolite 1-7

**Q.** And the “EC95 values, times lower than sofosbuvir” value ([1]; clinical isolates of all HCV genotypes tested)?
**A.** 7-33 times

**Q.** What about the EC95 ([1]; clinical isolates, all tested genotypes) of the same molecule?
**A.** < 80 nM

**Q.** What about the Appearance ([2]; FaSSIF) of the same molecule?
**A.** Turbid

**Q.** What about the Appearance ([2]; FeSSIF) of the same molecule?
**A.** Turbid

**Q.** What about the Appearance ([2]; SGF) of the same molecule?
**A.** Clear Solution

**Q.** What about the Appearance ([2]; Water) of the same molecule?
**A.** Clear Solution

**Q.** And the Descriptive term ([2]; FaSSIF)?
**A.** Slightly Soluble

**Q.** What about the Descriptive term ([2]; FeSSIF) of the same molecule?
**A.** Slightly Soluble

**Q.** What about the Descriptive term ([2]; SGF) of the same molecule?
**A.** Sparingly

**Q.** And the Descriptive term ([2]; Water)?
**A.** Slightly Soluble

**Q.** And the estimated fraction absorbed ([3]; based on urine recovery)?
**A.** ~50%

**Q.** What about the AUC(0-inf) ([3]; 150 mg/d, AUC Day 1 (AUCinf for Compound 1), Part C, 150 mg/d (n=6), Day 1) of the same molecule?
**A.** 492 ± 141 ng·h/mL

**Q.** And the AUC(0-inf) ([3]; 150 mg/d, AUC SS (AUCinf for Compound 1), Part C, 150 mg/d (n=6), steady state)?
**A.** 475 ± 301 ng·h/mL

**Q.** What about the AUC(0-inf) ([3]; 300 mg/d, AUC Day 1 (AUCinf for Compound 1), Part C, 300 mg/d (n=6), Day 1) of the same molecule?
**A.** 1950 ± 1120 ng·h/mL

**Q.** And the AUC(0-inf) ([3]; 300 mg/d, AUC SS (AUCinf for Compound 1), Part C, 300 mg/d (n=6), steady state)?
**A.** 1510 ± 976 ng·h/mL

**Q.** And the AUC(0-inf) ([3]; 600 mg/d, AUC Day 1 (AUCinf for Compound 1), Part C, 600 mg/d (n=6), Day 1)?
**A.** 3340 ± 1500 ng·h/mL

**Q.** And the AUC(0-inf) ([3]; 600 mg/d, AUC Day 1 (AUCinf for Compound 1), Part D, 600 mg/d (n=6), Day 1)?
**A.** 3330 ± 1240 ng·h/mL

**Q.** What about the AUC(0-inf) ([3]; 600 mg/d, AUC Day 1 (AUCinf for Compound 1), Part E, 600 mg/d (n=6), Day 1) of the same molecule?
**A.** 3320 ± 1470 ng·h/mL

**Q.** And the AUC(0-inf) ([3]; 600 mg/d, AUC SS (AUCinf for Compound 1), Part C, 600 mg/d (n=6), steady state)?
**A.** 4040 ± 2090 ng·h/mL

**Q.** What about the AUC(0-inf) ([3]; 600 mg/d, AUC SS (AUCinf for Compound 1), Part D, 600 mg/d (n=6), steady state) of the same molecule?
**A.** 3750 ± 2280 ng·h/mL

**Q.** What about the AUC(0-inf) ([3]; 600 mg/d, AUC SS (AUCinf for Compound 1), Part E, 600 mg/d (n=6), steady state) of the same molecule?
**A.** 3530 ± 1600 ng·h/mL

**Q.** And the AUC0-last [4, 10]?
**A.** 176 ng·h/mL

**Q.** What about the Cmax [4, 10] of the same molecule?
**A.** 63.5 ng/mL

**Q.** What about the Tmax [4, 10] of the same molecule?
**A.** 30 to 120 min

**Q.** And the AUC0-last [4, 11]?
**A.** 1100 ng·h/mL

**Q.** What about the Cmax [4, 11] of the same molecule?
**A.** 783 ng/mL

**Q.** What about the Tmax [4, 11] of the same molecule?
**A.** 60 to 120 min

**Q.** And the AUC0-last [4, 12]?
**A.** 1600 ng·h/mL

**Q.** And the Cmax [4, 12]?
**A.** 501 ng/mL

**Q.** What about the half-life (GT1 HCV [5]; daily dosing for 7 days) of the same molecule?
**A.** short half-life

**Q.** What about the “EC50 values, times lower than (more potent than) sofosbuvir” value [6] of the same molecule?
**A.** 6-11 times

**Q.** What about the “Mean Dose-normalized AUC(0-4 hr) for Compound 1” value [7] of the same molecule?
**A.** 0.2 µM·h

**Q.** What about the “time within which the parent is metabolized” value (GT1 HCV [8]) of the same molecule?
**A.** ≤ 8 h

**Q.** And the AUC0-last [9]?
**A.** 78.2 ng·h/mL

**Q.** What about the Cmax [9] of the same molecule?
**A.** 60.8 ng/mL

**Q.** What about the Tmax [9] of the same molecule?
**A.** 15 min

**Q.** For COC(=O)N[C@H](C(=O)N1CCC[C@H]1c1ncc(-c2cc(F)c3c(c2)O[C@@H](c2cnc(C4CC4)s2)n2c-3cc3cc(-c4cnc([C@@H]5CCCN5C(=O)[C@@H](NC(=O)OC)C(C)C)[nH]4)ccc32)[nH]1)C(C)C [Compound 2, dimethyl N,N′-([(6S)-6-(2-Cyclopropyl-1,3-thiazol-5-yl)-1-fluoro-6H-indolo[1,2-c][1,3]benzoxazine-3,10-diyl]bis{1H-imidazole-5,2-diyl-(2S)-pyrrolidine-2,1-diyl[(2S)-3-methyl-1-oxobutane-1,2-diyl]})dicarbamate], which “Individual HCV RNA maximum change from baseline” value (GT1, GT2, or GT3 HCV; GT1b individual subjects, listed as Compd 2) is on record?
**A.** GT1b: 4.0, log10 IU/mL

**Q.** What about the “Individual HCV RNA maximum change from baseline” value (GT1, GT2, or GT3 HCV; GT2 individual subject) of the same molecule?
**A.** GT2: 4.8 log10 IU/mL

**Q.** And the “Mean ± SD HCV RNA change from baseline to 24 h” value (“Mean ± SD HCV RNA change” below) (GT1, GT2, or GT3 HCV; N = 6)?
**A.** 2.4 ± 0.2 log10 IU/mL

**Q.** And the “Mean ± SD HCV RNA maximum change from baseline” value (from here on “Mean ± SD HCV RNA maximum change”) (GT1, GT2, or GT3 HCV; N = 6)?
**A.** 4.6 ± 0.5 log10 IU/mL

**Q.** What about the “Mean ± SD HCV RNA change” value (GT3 HCV) of the same molecule?
**A.** 2.3 ± 0.3 log10 IU/mL

**Q.** And the “Mean ± SD HCV RNA maximum change” value (GT3 HCV)?
**A.** 4.5 ± 0.3 log10 IU/mL

**Q.** What about the “Mean ± SD HCV RNA change” value (GT1 HCV [5]; 150 mg/day) of the same molecule?
**A.** 1.2 ± 0.3 log10 IU/mL

**Q.** And the “Mean ± SD HCV RNA maximum change” value (GT1 HCV [5]; 150 mg/day)?
**A.** 2.6 ± 1.1 log10 IU/mL

**Q.** What about the “Mean ± SD HCV RNA change” value (GT1 HCV [5]; 300 mg/day) of the same molecule?
**A.** 1.9 ± 0.2 log10 IU/mL

**Q.** What about the “Mean ± SD HCV RNA maximum change” value (GT1 HCV [5]; 300 mg/day) of the same molecule?
**A.** 4.0 ± 0.4 log10 IU/mL

**Q.** And the “Mean ± SD HCV RNA change” value (GT1 HCV [5]; 600 mg/day)?
**A.** 2.1 ± 0.2 log10 IU/mL

**Q.** And the “Mean ± SD HCV RNA maximum change” value (GT1 HCV [5]; 600 mg/day)?
**A.** 4.4 ± 0.7 log10 IU/mL

**Q.** What about the “affinity for HCV NS5A” value (HCV NS5A) of the same molecule?
**A.** sub- to low-picomolar
